This passage reports selectivity ratio, IC50 and CC50 results from ChEMBL document CHEMBL4261492, “Synthesis and in vitro study of novel borneol derivatives as potent inhibitors of the influenza A virus” (Medchemcomm, 2017).

Structures are written as SMILES.

One data set is described as follows: in vitro. Particulars: dog, MDCK cells, Ratio CC50/EC50.
Data set [1] deals with Influenza A virus. Briefly: microbe, parasite or virus in culture. Particulars: A/Puerto Rico/8/1934(H1N1), MDCK.
A further data set concerns MDCK. The data set can be described thus: (§1) Cytotoxicity against MDCK cells after 48 hrs by MTT assay. It is filed as cell-based, Canis lupus familiaris. The note with it: dog, mdck, 48 h. For orientation: Formazan colour is commonly taken as a measure of viable cells.
Data set [2] concerns Influenza A virus. The note with it: mdck.
Data set [3] can be described thus: as §1. It is filed as cell-based, Canis lupus familiaris. The note with it: dog, MDCK cells.

Take `CC1(C)[C@H]2CC[C@]1(C)[C@H](OC(=O)CCN1CCNCC1)C2`: in the data set “in vitro”, the selectivity ratio was determined as 2. Also, 6.8 µM corresponded to half-maximal inhibition in the data set with Influenza A virus [1] (IC50). Further, the CC50 in the data set with MDCK was 12.6 µM.
The like results for `CC1CCN(CC(=O)O[C@@H]2C[C@@H]3CC[C@@]2(C)C3(C)C)CC1` were, in that order, 9, 10.2 µM and 93.9 µM.
The matching figures for `CN1CCN(CCC(=O)O[C@@H]2C[C@@H]3CC[C@@]2(C)C3(C)C)CC1`: 25, 1.9 µM and 48.1 µM.
For the compound `CC1(C)[C@H]2CC[C@]1(C)[C@H](OC(=O)CN1CCOCC1)C2`, the selectivity ratio in the data set “in vitro” amounted to 82. The concentration for half-maximal inhibition (IC50) in the data set with Influenza A virus [1] was 7.1 µM. Besides, it took 580 µM to reach half-maximal cytotoxicity in the data set with MDCK (CC50).
In the case of `CC(N)C12CC3CC(CC(C3)C1)C2` (configuration not stated) [RIMANTADINE], in the data set “in vitro”, the selectivity ratio was 5. This compound came in with an IC50 in the data set on Influenza A virus [1] of 67 µM.
On to `CC1(C)[C@H]2CC[C@]1(C)[C@@H](O)C2` (stereo in doubt; 22), for which the IC50 in the data set on Influenza A virus [2] is above 974 µM. Further, the CC50 with MDCK is above 974 µM.
As for `NC12CC3CC(CC(C3)C1)C2` [AMANTADINE], in the data set “in vitro”, the selectivity ratio was determined as 4. The compound further came in with an IC50 with Influenza A virus [1] of 64.2 µM.
`CC1(C)[C@H]2CC[C@]1(C)[C@H](OC(=O)CCN1CCCCC1)C2`: in the data set with Influenza A virus [1], the IC50 came out at 7.8 µM. In the data set on MDCK, this compound gave a CC50 of 69.6 µM.
As to `NC(=O)c1ncn([C@@H]2O[C@H](CO)[C@@H](O)[C@H]2O)n1` [RIBAVIRIN], the selectivity ratio in the data set “in vitro” is above 81. Further, inhibition with Influenza A virus [1] was half-maximal at 24.6 µM (IC50). In the data set with MDCK, the CC50 was above 2000 µM.
The matching figures for `CC1(C)[C@H]2CC[C@]1(C)[C@H](OC(=O)CCN1CCOCC1)C2`: 45, 12.2 µM and 552 µM.
The matching figures for `CCCCN(CCCC)CCC(=O)O[C@@H]1C[C@@H]2CC[C@@]1(C)C2(C)C`: 6, 7.1 µM and 41.8 µM.
The matching figures for `CCOC(=O)N1CCN(CC(=O)O[C@@H]2C[C@@H]3CC[C@@]2(C)C3(C)C)CC1`: 1, 683 µM and above 852 µM.
In the data set on Influenza A virus [1], `CC1(C)[C@H]2CC[C@]1(C)[C@@H](OC(=O)CN1CCOCC1)C2` had an IC50 of 73.7 µM. Moreover, the CC50 in the data set with MDCK is above 534 µM.
In turn, `CCOC(=O)C1=C[C@@H](OC(CC)CC)[C@H](NC(C)=O)[C@@H](N)C1` [OSELTAMIVIR] had a CC50 with MDCK of 160 µM.
Regarding `CC1(C)[C@H]2CC[C@]1(C)[C@H](OC(=O)CCN1CCCC1)C2`, in the data set “in vitro”, the selectivity ratio was determined as 9. In addition, in the data set with Influenza A virus [1], the IC50 was 14.3 µM. In addition, the CC50 in the data set with MDCK was 125 µM.
In the case of `COC(=O)CN1CCOCC1`, the IC50 in the data set on Influenza A virus [1] is above 1890 µM. The same compound gave a CC50 in the data set on MDCK above 1890 µM.
`CC1(C)[C@H]2CC[C@]1(C)[C@@H](O)C2` (stereo in doubt; 1) gave a CC50 with MDCK above 2140 µM.
For `CCN1CCN(CCC(=O)O[C@@H]2C[C@@H]3CC[C@@]2(C)C3(C)C)CC1`, in “in vitro”, the selectivity ratio was found to be 12. In addition, the IC50 in the data set on Influenza A virus [1] came to 8.4 µM. The compound also returned a CC50 in the data set with MDCK of 105 µM.
The matching figures for `CC1(C)[C@H]2CC[C@]1(C)[C@H](OC(=O)CN1CCCCC1)C2`: 9, 15.1 µM and 138 µM.
As for `CC1(C)[C@H]2CC[C@]1(C)[C@@H](OC(=O)CCN1CCOCC1)C2`, the selectivity ratio in “in vitro” turned out to be 65. Moreover, in the data set on Influenza A virus [1], the IC50 came to 7.8 µM. For the same compound, in the data set on MDCK, the CC50 worked out at 508 µM.
The like results for `CC1CCN(CCC(=O)O[C@@H]2C[C@@H]3CC[C@@]2(C)C3(C)C)CC1` were, in that order, 4, 15.3 µM and 56.4 µM.
In the case of `CC1(C)[C@H]2CC[C@]1(C)[C@H](OC(=O)CN1CCCC1)C2`, the selectivity ratio in the data set “in vitro” turned out to be 9. Also, the IC50 in the data set on Influenza A virus [1] came to 34 µM. The compound also yielded a CC50 in the data set on MDCK of 302 µM.
In the data set on Influenza A virus [1], `CCCCN(CCCC)CC(=O)O[C@@H]1C[C@@H]2CC[C@@]1(C)C2(C)C` gave an IC50 above 34.1 µM. In the data set with MDCK, this compound gave a CC50 of 69.3 µM.
Regarding `CCOC(=O)N1CCN(CCC(=O)O[C@@H]2C[C@@H]3CC[C@@]2(C)C3(C)C)CC1`, the selectivity ratio in “in vitro” worked out at 2. Also, the IC50 in the data set with Influenza A virus [1] is above 98.4 µM. Further, in the data set with MDCK, it took 150 µM to reach half-maximal cytotoxicity (CC50).
Take `CCOC(=O)CN1CCOCC1`: inhibition in the data set on Influenza A virus [1] was half-maximal at 983 µM (IC50). The compound also returned a CC50 in the data set on MDCK above 1730 µM.
As for `CC1(C)[C@H]2CC[C@]1(C)[C@H](OC(=O)CN1CCNCC1)C2`, in the data set “in vitro”, the selectivity ratio was 16. Besides, the IC50 in the data set with Influenza A virus [1] was 3.2 µM. In data set [3], the CC50 at 48 h came to 51.6 µM.
The like results for `CN1CCN(CC(=O)O[C@@H]2C[C@@H]3CC[C@@]2(C)C3(C)C)CC1` were, in that order, 14, 7.1 µM and 103 µM.
The matching figures for `CCN1CCN(CC(=O)O[C@@H]2C[C@@H]3CC[C@@]2(C)C3(C)C)CC1`: 23, 4.4 µM and 100 µM.

The term IC50 denotes the midpoint of a concentration-inhibition curve. The term CC50 denotes the concentration at which the toxic effect on the cells reaches its halfway point. Read a low CC50 as harm at low concentration.
